The first test concerns the target T1, human DGAT1 (Homo sapiens, UniProt O75907).
T1 construct: made in house; host or cells: Sf9 insect cells (baculovirus), membrane fraction
T1 sequence (O75907 1-488): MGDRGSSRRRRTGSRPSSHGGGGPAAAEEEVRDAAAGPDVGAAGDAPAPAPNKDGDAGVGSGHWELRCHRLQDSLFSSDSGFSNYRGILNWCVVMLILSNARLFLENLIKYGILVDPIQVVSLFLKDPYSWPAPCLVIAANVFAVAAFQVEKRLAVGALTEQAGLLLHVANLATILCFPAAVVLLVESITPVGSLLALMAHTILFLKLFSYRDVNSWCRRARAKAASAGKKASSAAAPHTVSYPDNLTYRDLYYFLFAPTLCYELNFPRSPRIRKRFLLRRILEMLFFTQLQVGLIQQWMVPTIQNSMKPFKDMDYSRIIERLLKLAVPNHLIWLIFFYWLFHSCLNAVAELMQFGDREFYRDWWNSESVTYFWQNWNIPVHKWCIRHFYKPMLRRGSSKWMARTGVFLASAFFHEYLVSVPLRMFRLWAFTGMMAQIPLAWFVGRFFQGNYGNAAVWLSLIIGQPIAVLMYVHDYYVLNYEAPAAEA
As to the kind of experiment: Human Enzyme Assay (DGAT1 inhibition, 14C oleoyl CoA incorporation into triolein). As to conditions: human DGAT1 expressed in sf9 insect cell membranes; Examples 5 to 24; rounded to 2 decimal places. In kind it is biochemical. On the procedure:
Briefly, sf9 cells were infected with recombinant baculovirus containing human DGAT1 coding sequences and harvested after 48 h. Cells were lysed by sonication and membranes isolated by centrifuging at 28000 rpm for 1 h at 4° C. on a 41% sucrose gradient. The membrane fraction at the interphase was collected, washed, and stored in liquid nitrogen.
The reaction was started by adding ^14C oleoyl coenzyme A (30 μM final concentration) and incubated at room temperature for 30 minutes. The reaction was stopped by adding 200 μl 2-propanol:heptane 7:1. Radioactive triolein product was separated into the organic phase by adding 300 μl heptane and 100 μl 0.1 M carbonate buffer pH 9.5. DGAT1 activity was quantified by counting aliquots of the upper heptane layer by liquid scintillography.
`Cc1c(Cl)cccc1-c1ccc(N2CCOc3ncnc(N)c3C2=O)cc1` [Example 6, 4-amino-6-(3′-chloro-2′-methylbiphenyl-4-yl)-7,8-dihydropyrimido[5,4-f][1,4]oxazepin-5(6H)-one]: 400 nM corresponded to half-maximal inhibition (IC50).

As to `Cc1cc(Cl)ccc1-c1ccc(N2CCOc3ncnc(N)c3C2=O)cc1` [Example 7, 4-amino-6-(4′-chloro-2′-methylbiphenyl-4-yl)-7,8-dihydropyrimido[5,4-f][1,4]oxazepin-5(6H)-one], 80 nM corresponded to half-maximal inhibition (IC50).

Molecule `Cc1ccc(Cl)cc1-c1ccc(N2CCOc3ncnc(N)c3C2=O)cc1` [Example 8, 4-amino-6-(5′-chloro-2′-methylbiphenyl-4-yl)-7,8-dihydropyrimido[5,4-f][1,4]oxazepin-5(6H)-one] yielded an IC50 of 70 nM.

Regarding `N#Cc1ccc(Cl)cc1-c1ccc(N2CCOc3ncnc(N)c3C2=O)cc1` [Example 14, 4′-(4-amino-5-oxo-7,8-dihydropyrimido[5,4-f][1,4]oxazepin-6(5H)-yl)-5-chlorobiphenyl-2-carbonitrile], the IC50 amounted to 100 nM.

Consider `N#Cc1c(Cl)cccc1-c1ccc(N2CCOc3ncnc(N)c3C2=O)cc1` [Example 15, 4′-(4-amino-5-oxo-7,8-dihydropyrimido[5,4-f][1,4]oxazepin-6(5H)-yl)-3-chlorobiphenyl-2-carbonitrile], for which the IC50 came to 240 nM.

`Nc1ncnc2c1C(=O)N(c1ccc(-c3ccc(S(N)(=O)=O)cc3Cl)cc1)CCO2` [Example 18, 4′-(4-Amino-5-oxo-7,8-dihydropyrimido[5,4-f][1,4]oxazepin-6(5H)-yl)-2-chlorobiphenyl-4-sulfonamide]: it took 40 nM to reach half-maximal inhibition (IC50).

As to `N#Cc1cc(Cl)ccc1-c1ccc(N2CCOc3ncnc(N)c3C2=O)cc1` [Example 22, 4′-(4-Amino-5-oxo-7,8-dihydropyrimido[5,4-f][1,4]oxazepin-6(5H)-yl)-4-chlorobiphenyl-2-carbonitrile], the IC50 was 50 nM.

Staying with this test, now noted: human DGAT1 expressed in sf9 insect cell membranes; Examples 25 to 59; rounded to 2 decimal places.
In the case of `Nc1ncnc2c1C(=O)N(c1ccc(-c3cccc(F)c3F)cc1)CCO2` [Example 25, 4-Amino-6-(2′,3′-difluorobiphenyl-4-yl)-7,8-dihydropyrimido[5,4-f][1,4]oxazepin-5(6H)-one], 320 nM corresponded to half-maximal inhibition (IC50). This counts as sub-micromolar.

`Nc1ncnc2c1C(=O)N(c1ccc(-c3cc(F)ccc3F)cc1)CCO2` [Example 26, 4-Amino-6-(2′,5′-difluorobiphenyl-4-yl)-7,8-dihydropyrimido[5,4-f][1,4]oxazepin-5(6H)-one] returned an IC50 of 110 nM.

In the case of `Nc1ncnc2c1C(=O)N(c1ccc(-c3ccc(Cl)cc3F)cc1)CCO2` [Example 27, 4-Amino-6-(4′-chloro-2′-fluorobiphenyl-4-yl)-7,8-dihydropyrimido[5,4-f][1,4]oxazepin-5(6H)-one], the half-inhibitory concentration (IC50) was 40 nM.

`Nc1ncnc2c1C(=O)N(c1ccc(-c3cc(F)c(F)cc3F)cc1)CCO2` [Example 28, 4-Amino-6-(2′,4′,5′-trifluorobiphenyl-4-yl)-7,8-dihydropyrimido[5,4-f][1,4]oxazepin-5(6H)-one] registered a 50% inhibitory concentration (IC50) of 130 nM.

In the case of `Nc1ncnc2c1C(=O)N(c1ccc(-c3ccc(F)cc3F)cc1)CCO2` [Example 29, 4-Amino-6-(2′,4′-difluorobiphenyl-4-yl)-7,8-dihydropyrimido[5,4-f][1,4]oxazepin-5(6H)-one], the half-maximal inhibitory concentration (IC50) was determined as 60 nM.

In the case of `Cc1nc(N)c2c(n1)OCCN(c1ccc(-c3ccccc3Cl)cc1)C2=O` [Example 42, 4-Amino-6-(2′-chlorobiphenyl-4-yl)-2-methyl-7,8-dihydropyrimido[5,4-f][1,4]oxazepin-5(6H)-one], the IC50 was determined as 90 nM. Against the preceding molecule, the IC50 is about 1.5-fold higher.

`Cc1nc(N)c2c(n1)OCCN(c1ccc(-c3ccc(CNS(C)(=O)=O)cc3Cl)cc1)C2=O` [Example 43, N-((4′-(4-amino-2-methyl-5-oxo-7,8-dihydropyrimido[5,4-f][1,4]oxazepin-6(5H)-yl)-2-chlorobiphenyl-4-yl)methyl)methanesulfonamide] showed an IC50 of 100 nM.

Turning to `C[C@@H]1CN(c2ccc(-c3ccccc3Cl)cc2)C(=O)c2c(N)ncnc2O1` [Example 44, (R)-4-Amino-6-(2′-chlorobiphenyl-4-yl)-8-methyl-7,8-dihydropyrimido[5,4-f][1,4]oxazepin-5(6H)-one], the half-inhibitory concentration (IC50) was determined as 20 nM.

As for `C[C@@H]1CN(c2ccc(-c3ccc(CNS(C)(=O)=O)cc3Cl)cc2)C(=O)c2c(N)ncnc2O1` [Example 45, (R)—N-((4′-(4-amino-8-methyl-5-oxo-7,8-dihydropyrimido[5,4-f][1,4]oxazepin-6(5H)-yl)-2-chlorobiphenyl-4-yl)methyl)methanesulfonamide], the 50% inhibitory concentration (IC50) amounted to 60 nM. Compared with the last molecule, the IC50 is about 3-fold higher.

In turn, `C[C@@H]1CN(c2ccc(-c3ccccc3F)cc2)C(=O)c2c(N)ncnc2O1` [Example 46, (R)-4-amino-6-(2′-fluorobiphenyl-4-yl)-8-methyl-7,8-dihydropyrimido[5,4-f][1,4]oxazepin-5(6H)-one] yielded an IC50 of 20 nM.

The molecule `C[C@@H]1CN(c2ccc(-c3ccc(CN(C)S(C)(=O)=O)cc3Cl)cc2)C(=O)c2c(N)ncnc2O1` [Example 47, (R)—N-((4′-(4-amino-8-methyl-5-oxo-7,8-dihydropyrimido[5,4-f][1,4]oxazepin-6(5H)-yl)-2-chlorobiphenyl-4-yl)methyl)-N-methylmethanesulfonamide] had a half-inhibitory concentration (IC50) of 50 nM.

As to `C[C@@H]1CN(c2ccc(-c3ccc(CS(C)(=O)=O)cc3Cl)cc2)C(=O)c2c(N)ncnc2O1` [Example 48, (R)-4-Amino-6-(2′-chloro-4′-(methylsulfonylmethyl)biphenyl-4-yl)-8-methyl-7,8-dihydropyrimido[5,4-f][1,4]oxazepin-5(6H)-one], the IC50 worked out at 60 nM.

In turn, `C[C@@H]1CN(c2ccc(-c3c(F)cccc3F)cc2)C(=O)c2c(N)ncnc2O1` [Example 49, (R)-4-amino-6-(2′,6′-difluorobiphenyl-4-yl)-8-methyl-7,8-dihydropyrimido[5,4-f][1,4]oxazepin-5(6H)-one] came in with an IC50 of 20 nM.

Regarding `C[C@@H]1CN(c2ccc(-c3ccc(Cl)cc3C#N)c(F)c2)C(=O)c2c(N)ncnc2O1` [Example 50, (R)-4′-(4-Amino-8-methyl-5-oxo-7,8-dihydropyrimido[5,4-f][1,4]oxazepin-6(5H)-yl)-4-chloro-2′-fluorobiphenyl-2-carbonitrile], it took 40 nM to reach half-maximal inhibition (IC50).

In the case of `C[C@@H]1CN(c2ccc(-c3ccc(C#N)cc3Cl)c(F)c2)C(=O)c2c(N)ncnc2O1` [Example 51, (R)-4′-(4-Amino-8-methyl-5-oxo-7,8-dihydropyrimido[5,4-f][1,4]oxazepin-6(5H)-yl)-2-chloro-2′-fluorobiphenyl-4-carbonitrile], the 50% inhibitory concentration (IC50) is 20 nM.

The molecule `C[C@@H]1CN(c2ccc(-c3c(Cl)cccc3C#N)c(F)c2)C(=O)c2c(N)ncnc2O1` [Example 52, 4′-((R)-4-Amino-8-methyl-5-oxo-7,8-dihydropyrimido[5,4-f][1,4]oxazepin-6(5H)-yl)-6-chloro-2′-fluorobiphenyl-2-carbonitrile] had an IC50 of 70 nM.

`C[C@@H]1CN(c2ccc(-c3ccc(F)cc3F)c(F)c2)C(=O)c2c(N)ncnc2O1` [Example 53, (R)-4-Amino-8-methyl-6-(2,2′,4′-trifluorobiphenyl-4-yl)-7,8-dihydropyrimido[5,4-f][1,4]oxazepin-5(6H)-one] showed an IC50 of 20 nM.

As to `C[C@@H]1CN(c2ccc(-c3ccccc3F)c(F)c2)C(=O)c2c(N)ncnc2O1` [Example 54, (R)-4-Amino-6-(2,2′-difluorobiphenyl-4-yl)-8-methyl-7,8-dihydropyrimido[5,4-f][1,4]oxazepin-5(6H)-one], the concentration for half-maximal inhibition (IC50) stood at 20 nM.

Regarding `C[C@@H]1CN(c2ccc(-c3ccccc3Cl)c(F)c2)C(=O)c2c(N)ncnc2O1` [Example 55, (R)-4-Amino-6-(2′-chloro-2-fluorobiphenyl-4-yl)-8-methyl-7,8-dihydropyrimido[5,4-f][1,4]oxazepin-5(6H)-one], the midpoint of inhibition, the IC50, lay at 10 nM.

Regarding `C[C@@H]1CN(c2ccc(-c3c(F)cccc3Cl)c(F)c2)C(=O)c2c(N)ncnc2O1` [Example 56, (8R)-4-amino-6-(2′-chloro-2,6′-difluorobiphenyl-4-yl)-8-methyl-7,8-dihydropyrimido[5,4-f][1,4]oxazepin-5(6H)-one], it took 10 nM to reach half-maximal inhibition (IC50).

Regarding `C[C@@H]1CN(c2ccc(-c3c(F)cccc3F)c(F)c2)C(=O)c2c(N)ncnc2O1` [Example 57, (R)-4-amino-8-methyl-6-(2,2′,6′-trifluorobiphenyl-4-yl)-7,8-dihydropyrimido[5,4-f][1,4]oxazepin-5(6H)-one], half-maximal inhibition (IC50) was put at 20 nM.

Staying with this test, now noted: human DGAT1 expressed in sf9 insect cell membranes; usually mean of 2 measurements.
The molecule `Nc1ncnc2c1C(=O)N(c1ccc(-c3ccc(S(N)(=O)=O)cc3Cl)cc1)CCO2` [Example 4, 4′-(4-Amino-5-oxo-7,8-dihydropyrimido[5,4-f][1,4]oxazepin-6(5H)-yl)-2-chlorobiphenyl-4-sulfonamide] yielded an IC50 of 35 nM. In other words, the double-digit nanomolar range.

The term IC50 denotes the midpoint of a concentration-inhibition curve.

For the origin of these results see US20110251173A1, “CHEMICAL COMPOUNDS” (AstraZeneca AB, priority 2010, published 2011).
